The values below come from ChEMBL document CHEMBL3991601, “The target landscape of clinical kinase drugs” (Science, 2017).

The target in assay [1] is T1, Glycogen phosphorylase, liver form (Homo sapiens, UniProt P06737).
T1 sequence (P06737 whole entry): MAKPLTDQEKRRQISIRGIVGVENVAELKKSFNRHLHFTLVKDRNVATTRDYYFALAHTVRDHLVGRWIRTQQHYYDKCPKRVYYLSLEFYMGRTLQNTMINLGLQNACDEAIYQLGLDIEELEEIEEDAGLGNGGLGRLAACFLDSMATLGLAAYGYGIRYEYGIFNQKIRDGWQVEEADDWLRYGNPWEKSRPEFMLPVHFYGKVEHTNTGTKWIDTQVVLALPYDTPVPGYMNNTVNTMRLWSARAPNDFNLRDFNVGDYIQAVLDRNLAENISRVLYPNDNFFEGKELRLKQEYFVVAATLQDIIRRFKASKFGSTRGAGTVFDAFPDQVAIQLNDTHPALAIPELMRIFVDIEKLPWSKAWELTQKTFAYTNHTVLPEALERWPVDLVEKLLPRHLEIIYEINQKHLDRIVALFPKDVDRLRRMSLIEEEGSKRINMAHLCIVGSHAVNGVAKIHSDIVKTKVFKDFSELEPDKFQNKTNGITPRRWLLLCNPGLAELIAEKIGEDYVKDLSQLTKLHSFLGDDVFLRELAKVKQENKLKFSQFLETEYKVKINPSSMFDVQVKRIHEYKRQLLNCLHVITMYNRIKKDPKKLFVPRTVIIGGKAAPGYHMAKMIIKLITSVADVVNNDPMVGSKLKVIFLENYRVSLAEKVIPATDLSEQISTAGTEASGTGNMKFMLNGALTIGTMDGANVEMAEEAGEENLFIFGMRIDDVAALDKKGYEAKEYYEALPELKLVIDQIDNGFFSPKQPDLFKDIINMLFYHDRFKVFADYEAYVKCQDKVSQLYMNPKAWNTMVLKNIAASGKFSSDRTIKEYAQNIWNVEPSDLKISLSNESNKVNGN
Type of assay: subcellular, K-562, COLO 205, SK-N-BE(2) and MV-4-11, Cell lysate. The following applies: read-out: Kd apparent.

Assay [2] addresses Adenylate kinase 2, mitochondrial (Homo sapiens, UniProt P54819).
For assay [3], the target named is T2, Delta(24)-sterol reductase (Homo sapiens, UniProt Q15392).
T2 sequence (Q15392 whole entry): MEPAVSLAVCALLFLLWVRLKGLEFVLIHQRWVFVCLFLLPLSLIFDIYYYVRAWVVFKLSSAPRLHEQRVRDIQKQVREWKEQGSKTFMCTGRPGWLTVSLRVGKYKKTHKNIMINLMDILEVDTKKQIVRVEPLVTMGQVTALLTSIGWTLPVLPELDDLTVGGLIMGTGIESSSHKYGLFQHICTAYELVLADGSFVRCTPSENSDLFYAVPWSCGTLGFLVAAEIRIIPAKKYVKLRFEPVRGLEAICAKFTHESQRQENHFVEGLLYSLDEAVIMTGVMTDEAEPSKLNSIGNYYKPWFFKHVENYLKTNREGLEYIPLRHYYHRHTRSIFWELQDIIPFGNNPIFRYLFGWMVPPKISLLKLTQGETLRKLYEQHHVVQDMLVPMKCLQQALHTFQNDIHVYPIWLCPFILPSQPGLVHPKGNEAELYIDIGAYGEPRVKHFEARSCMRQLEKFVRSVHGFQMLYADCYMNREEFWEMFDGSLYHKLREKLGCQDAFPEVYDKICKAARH

Another assay has as its target T3, Scaffold protein ILK (Homo sapiens, UniProt Q13418).
T3 sequence (Q13418 whole entry): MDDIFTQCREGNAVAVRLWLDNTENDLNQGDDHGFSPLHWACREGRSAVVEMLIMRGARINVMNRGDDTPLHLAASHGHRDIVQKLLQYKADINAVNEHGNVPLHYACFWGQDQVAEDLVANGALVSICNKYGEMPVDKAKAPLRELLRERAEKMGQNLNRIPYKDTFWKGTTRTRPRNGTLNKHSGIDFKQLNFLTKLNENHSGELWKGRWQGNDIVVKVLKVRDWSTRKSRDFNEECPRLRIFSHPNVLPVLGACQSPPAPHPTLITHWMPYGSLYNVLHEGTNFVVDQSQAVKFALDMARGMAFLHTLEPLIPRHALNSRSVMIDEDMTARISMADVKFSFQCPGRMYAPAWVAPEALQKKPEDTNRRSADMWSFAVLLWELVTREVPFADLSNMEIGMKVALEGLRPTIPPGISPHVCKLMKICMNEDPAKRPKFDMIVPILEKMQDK

The target in a further assay is Midasin (Homo sapiens, UniProt Q9NU22).
Assay [4] deals with T4, Serine/threonine-protein kinase PLK4 (Homo sapiens, UniProt O00444).
T4 sequence (O00444 whole entry): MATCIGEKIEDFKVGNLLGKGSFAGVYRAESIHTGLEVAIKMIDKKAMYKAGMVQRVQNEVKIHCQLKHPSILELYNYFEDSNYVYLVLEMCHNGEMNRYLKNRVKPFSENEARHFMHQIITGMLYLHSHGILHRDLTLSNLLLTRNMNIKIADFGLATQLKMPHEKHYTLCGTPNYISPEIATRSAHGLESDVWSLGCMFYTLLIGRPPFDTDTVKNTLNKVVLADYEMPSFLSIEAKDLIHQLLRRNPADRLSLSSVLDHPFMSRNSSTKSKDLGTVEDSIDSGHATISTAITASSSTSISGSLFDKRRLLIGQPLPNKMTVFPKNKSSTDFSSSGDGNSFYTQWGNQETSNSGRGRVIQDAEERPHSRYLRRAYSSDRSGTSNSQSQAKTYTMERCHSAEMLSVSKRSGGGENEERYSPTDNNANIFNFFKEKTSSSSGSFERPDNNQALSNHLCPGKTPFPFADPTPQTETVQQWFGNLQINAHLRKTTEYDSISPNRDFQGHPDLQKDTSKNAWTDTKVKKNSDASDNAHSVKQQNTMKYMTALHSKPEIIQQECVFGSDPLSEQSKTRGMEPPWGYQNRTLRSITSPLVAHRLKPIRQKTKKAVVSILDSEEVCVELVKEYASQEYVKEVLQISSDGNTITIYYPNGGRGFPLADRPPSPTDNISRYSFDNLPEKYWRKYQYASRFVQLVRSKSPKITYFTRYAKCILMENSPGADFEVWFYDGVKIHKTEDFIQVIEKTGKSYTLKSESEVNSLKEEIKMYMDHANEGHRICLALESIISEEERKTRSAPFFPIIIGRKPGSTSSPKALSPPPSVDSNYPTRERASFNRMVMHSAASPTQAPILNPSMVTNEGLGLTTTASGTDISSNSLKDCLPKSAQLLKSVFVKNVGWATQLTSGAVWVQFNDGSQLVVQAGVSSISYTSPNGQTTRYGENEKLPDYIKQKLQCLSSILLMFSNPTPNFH

pKd: −log10 of the molar value. The source made the active and inactive calls.
Further: in the data inactive means no Kd found up to 30 µM.

Regarding `CC(C)CC(=O)Nc1[nH]nc2c1CN(C(=O)C1CCN(C)CC1)C2(C)C` [PHA-793887], the Kd (in assay [1]; in assay [2]; in assay [3]; at Scaffold protein ILK; at Midasin; in assay [4]) was > 30 µM (inactive) throughout.
Turning to `COc1cc2ncnc(Nc3ccc(O)cc3)c2cc1OC` [WHI-P131], the Kd (in assay [1]; in assay [2]; in assay [3]; on Scaffold protein ILK; on Midasin; in assay [4]) was > 30 µM (inactive) in each case.
As for `COc1cccc(Nc2ncnn3ccc(CN4CC[C@@H](N)[C@H](O)C4)c23)c1` [BMS-690514], the Kd (in assay [1]; in assay [2]; in assay [3]; at Scaffold protein ILK; on Midasin; in assay [4]) was > 30 µM (inactive) in each case.
As to `S=C(NCc1ccc2c(c1)OCO2)N1CCN(c2ncnc3c2oc2ccccc23)CC1` [AMUVATINIB], the Kd (in assay [1]; in assay [2]; in assay [3]; at Scaffold protein ILK; at Midasin; in assay [4]) was > 30 µM (inactive) in each case.
`Cc1ccc(C(=O)Nc2ccc(Oc3cc4cnn(C)c4cc3-c3cn[nH]c3)c(F)c2)c(=O)n1-c1ccc(F)cc1` [MERESTINIB]: the Kd in assay [1] is > 30 µM (inactive); in assay [2], > 30 µM (inactive); in assay [3], > 30 µM (inactive); on Scaffold protein ILK, > 30 µM (inactive); on Midasin it was > 30 µM (inactive); in assay [4], 1.61 µM (active).
With `C=CC(=O)Nc1cc(Nc2nccc(-c3cn(C)c4ccccc34)n2)c(OC)cc1N(C)CCN(C)C` [OSIMERTINIB], the Kd (in assay [1]; in assay [2]; in assay [3]; at Scaffold protein ILK; at Midasin; in assay [4]) was > 30 µM (inactive) in each case.
In the case of `COc1cc(Nc2ncc(F)c(Nc3ccc4c(n3)N(COP(=O)(O)O)C(=O)C(C)(C)O4)n2)cc(OC)c1OC` [FOSTAMATINIB], the Kd is > 30 µM (inactive) in assay [1]; > 30 µM (inactive) in assay [2]; > 30 µM (inactive) in assay [3]; > 30 µM (inactive) at Scaffold protein ILK; > 30 µM (inactive) at Midasin; 0.57 µM (active) in assay [4].
On to `NC[C@@](O)(c1ccc(Cl)cc1)c1ccc(-c2cn[nH]c2)cc1` [AT-13148], for which the Kd (in assay [1]; in assay [2]; in assay [3]; on Scaffold protein ILK; on Midasin; in assay [4]) was > 30 µM (inactive) each time.
For `O=S(=O)(c1cccc2c(O)nccc12)N1CCCNCC1` [HYDROXYFASUDIL], the Kd (in assay [1]; in assay [2]; in assay [3]; on Scaffold protein ILK; on Midasin; in assay [4]) was > 30 µM (inactive) each time.
For `O=C(O)c1ccc2c(c1)nc(Nc1cccc(Cl)c1)c1ccncc12` [SILMITASERTIB], the Kd (in assay [1]; in assay [2]; in assay [3]; at Scaffold protein ILK; at Midasin; in assay [4]) was > 30 µM (inactive) in each case.
For `CCc1nc(C(N)=O)c(Nc2ccc(N3CCC(N4CCN(C)CC4)CC3)c(OC)c2)nc1NC1CCOCC1` [GILTERITINIB], the Kd in assay [1] was > 30 µM (inactive); in assay [2], > 30 µM (inactive); in assay [3], 0.432 µM (active); at Scaffold protein ILK it was > 30 µM (inactive); at Midasin, > 30 µM (inactive). In assay [4], this compound showed a pKd of 7.74.
Turning to `Cc1c(NC(=O)OC[C@@H]2COCCN2)cn2ncnc(Nc3ccc4c(cnn4Cc4cccc(F)c4)c3)c12` [AC-480], the Kd (in assay [1]; in assay [2]; in assay [3]; on Scaffold protein ILK; at Midasin; in assay [4]) was > 30 µM (inactive) each time.
With `Cn1c(=O)n(-c2ccc(C(C)(C)C#N)cc2)c2c3cc(-c4cnc5ccccc5c4)ccc3ncc21` [DACTOLISIB], the Kd (in assay [1]; in assay [2]; in assay [3]; at Scaffold protein ILK; on Midasin; in assay [4]) was > 30 µM (inactive) each time.
